Assay results: patent publication US20060275329A1 (priority 2002, published 2006)

How the values were obtained:
[1] = test system: TcOYE; experiment: Electron spin resonance spectrum of the reaction product of TcOYE (radical generation); assay type: biochemical, Trypanosoma cruzi; conditions: JEOL X-band spectrometer
Protocol: Generation of radicals as a result of one-electron reduction is determined as follows. A hundred microliter of 5 mM tris-HCl buffer (pH 7.0) containing TcOYE and a substrate candidate is displaced with argon gas for 5 minutes to make an anaerobic environment. Then, 10 mM NADPH or NADH is added to the reaction mixture and allowed to react at 25° C. or 37° C. for 3 minutes under anaerobic condition. Part of the reaction mixture is analyzed with an electron spin resonance spectrometer (JEOL X-band spectrometer) to determine the generation of radicals. The measurement conditions and analytical method are described in the paper below. It is believed that the radicals produced react with oxygen to generate superoxide anion radicals (Moreno S. N. J. et al., J. Biol. Chem. 259: 6298-6305, 1984), which kill Trypanosoma cruzi.
The semiquinone radicals reacted with oxygen and produced superoxide anion radicals, which kill the protozoa (see FIG. 8).

[2] = test system: TcOYE; experiment: Inhibition of the PGH2-F2α reductase activity of TcOYE; assay type: biochemical, Trypanosoma cruzi; conditions: FIG. 9
Protocol: An example of the reaction is as follows. For reaction under aerobic condition, 1 μl of 500 μM [1-14C]PGH2 solution (2.04 Gbq/mmol; acetone, DMSO or dimethylether diethylene glycol solution) is added to 100 μl of 100 mM phosphate buffer (pH 7.0) containing a NADPH production system (100 μM NADP, 100 μM glucose-6-phosphate, 1 unit of glucose-6-phosphate dehydrogenase), TcOYE and an inhibitor, and is allowed to react at 37° C. for two minutes. For reaction under anaerobic condition, after bubbling the reaction mixture with argon gas for five minutes, 100 μM NADPH or NADH and 1 μl PGH2 solution are added, and the mixture is allowed to react in argon gas at 37° C. for two minutes.
250 μl of a stop solution (diethyl ether:methanol:2M citric acid (30:4:1 mixed solution)) at −20° C. and an excess amount of anhydrous sodium sulfate are added to stop the reaction, and the remaining substrate ([1-14C]PGH2) and the enzymatic reaction product ([1-14C]PGF2α) are extracted in ether at the same time. Part (about 50 μl) of the ether layer is applied onto a silica gel thin layer (Merck & Co.) in a low-temperature room, and thin-layer chromatography (eluent:diethyl ether:methanol:acetic acid (90:2:1 mixed solution)) is performed in a refrigerated room at −20° C. After development, autoradiography of the thin layer plate is performed using the image analyzer FL2000 (Fuji Photo Film), and the substrate to product ratio is calculated to determine enzymatic activity.
The enzymatic reaction described above is conducted in the presence or absence of an inhibitor and a decrease in the reaction rate due to the inhibitor is examined to determine whether or not the reduction is inhibited. Because it is very likely that Trypanosoma cruzi uses prostaglandin to sustain parasitism in host cells, an inhibitor of TcOYE may be used to inhibit Trypanosoma cruzi parasitism in host cells.
Naphtoquinone compounds and nitro heterocyclic compounds that are reduced by TcOYE inhibit the PGH2-F2α reducing activity of TcOYE in a dose-dependent manner.

[3] = test system: recombinant TcOYE; assay type: biochemical, Trypanosoma cruzi; conditions: pH 7
[4] = test system: CC1=CC(=O)c2ccccc2C1=O; experiment: purified protein, by the assay type; conditions: other: cofactor NADPH (500 μM), argon-bubbled 0.1 M phosphate buffer pH 7.0, decrease in absorption at 340 nm
[5] = test system: [H][C@]12C[C@]([H])(OO1)[C@H](C/C=C\CCCC(=O)O)[C@H]2/C=C/[C@@H](O)CCCCC; experiment: purified protein, by the assay type; conditions: other: cofactor NADPH (500 μM), argon-bubbled 0.1 M phosphate buffer pH 7.0, decrease in absorption at 340 nm
[6] = test system: CC1CS(=O)(=O)CCN1/N=C/c1ccc([N+](=O)[O-])o1; experiment: purified protein, by the assay type; conditions: other: cofactor NADPH (500 μM), argon-bubbled 0.1 M phosphate buffer pH 7.0, decrease in absorption at 340 nm
[7] = test system: CC1(C)CCC2=C(O1)c1ccccc1C(=O)C2=O; experiment: purified protein, by the assay type; conditions: other: cofactor NADH (500 μM), argon-bubbled 0.1 M phosphate buffer pH 7.0, decrease in absorption at 340 nm
[8] = test system: C[n+]1c2ccccc2nc2ccccc21; experiment: purified protein, by the assay type; conditions: other: cofactor NADPH (500 μM), argon-bubbled 0.1 M phosphate buffer pH 7.0, decrease in absorption at 340 nm
[9] = test system: O=[N+]([O-])c1cc[n+]([O-])c2ccccc12; experiment: purified protein, by the assay type; conditions: other: cofactor NADPH (500 μM), argon-bubbled 0.1 M phosphate buffer pH 7.0, decrease in absorption at 340 nm
[10] = test system: crude extract of Trypanosoma cruzi (PG synthesizing system); experiment: Prostaglandin production from arachidonic acid by crude extract of Trypanosoma cruzi; assay type: biochemical
Protocol: The vegetative form (epimastigote) of Trypanosoma cruzi YNIH strain in the insect body (obtained from the National Institute of Infectious Diseases (1-23-1, Toyama, Shinjuku-ku, Tokyo)) was incubated by the conventional method (Nozaki T. et al., J. Biol. Chem. 276: 6516-6523, 2001) using synthetic culture medium. The cultured protozoa was destroyed by hyposmotic treatment and allowed to react with arachidonic acid, and the PGs produced were extracted with an organic solvent and separated/purified by HPLC.

Molecule	Type of reduction and radical production (ESR) [1]	Reduction of the compound by TcOYE (substrate specificity) [3]	other results
CC1=CC(=O)c2ccccc2C1=O [menadion]	underwent one-electron reduction and produced semiquinone radicals	reduces	Inhibition of the PGH2-F2α reducing activity of TcOYE [2]: weak
CC1(C)CCC2=C(O1)c1ccccc1C(=O)C2=O [β-lapachone]	underwent one-electron reduction and produced semiquinone radicals	reduces	Inhibition of the PGH2-F2α reducing activity of TcOYE [2]: weak
2β,6α-dimethyl-8α-(2-methyl-1-oxo-butoxy)-mevinic acid lactone [mevinolin]	underwent two-electron reduction and did not produce radicals	reduces	
CC/C=C\C[C@@H]1C(=O)C=C[C@@H]1CCCCCCCC(=O)O [12-oxo-phytodienoic acid, 4-oxo-5β-(2Z-pentenyl)-2-cyclopentene-1β-octanoic acid]		reduces	
recombinant TcOYE (Trypanosoma cruzi old yellow enzyme, PGH2-F2α reductase, flavoprotein, SEQ ID NO: 2, 379 amino acids; expressed in E. coli BL21 from pGEX-4T-1 as fusion with glutathione transferase, recovered by thrombin treatment) (Trypanosoma cruzi)			Km [4]: 0.82 µM; Km [5]: 5.0 µM; Km [6]: 19.0 µM; Km [7]: 0.17 µM; Km [8]: 10.4 µM; Km [9]: 9.5 µM
Clc1ccc(COC(Cn2ccnc2)c2ccc(Cl)cc2Cl)cc1 (stereo not shown) [econazole]		reduces	
O=C(Cn1ccnc1[N+](=O)[O-])NCc1ccccc1 [benznidazole]		did not reduce	
CC(=O)Oc1ccccc1C(=O)O [Aspirin]			Production of PGs (PGD2, PGE2, PGF2) by crude extract ([10]; 3 μM Aspirin): unaffected
CC1CS(=O)(=O)CCN1/N=C/c1ccc([N+](=O)[O-])o1 (stereo not shown) [nifurtimox]	underwent two-electron reduction and did not produce radicals	reduces	Inhibition of the PGH2-F2α reducing activity of TcOYE [2]: inhibits the activity most strongly
CCCCC/C=C\C=C\C(=O)CCCCCCCC(=O)O [9-oxo-10E,12Z-octadecadienoic acid]		reduces	
C[n+]1c2ccccc2nc2ccccc21 [phenazine methosulfate, 5-methyl-phenaziummethylsulfate]		reduces	
COc1ccc2c(c1)c(CC(=O)O)c(C)n2C(=O)c1ccc(Cl)cc1 [indomethacin]			Production of PGs (PGD2, PGE2, PGF2) by crude extract ([10]; 42 μM indomethacin): unaffected
OO [hydrogen peroxide]		reduced	
O=[N+]([O-])c1cc[n+]([O-])c2ccccc12 [4-nitroquinoline-N-oxide]	underwent two-electron reduction and did not produce radicals	reduces	Inhibition of the PGH2-F2α reducing activity of TcOYE [2]: weak
